# Values of other authors in PMC4284722, “Intrinsic Tryptophan Fluorescence in the Detection and Analysis of Proteins: A Focus on Förster Resonance Energy Transfer Techniques” (International Journal of Molecular Sciences, 2014).
# Test system: serum albumin
# Design: method as in PMID 2313585, PMID 19683079
# Settings: nonspecific ligand of serum albumin
structure (smiles),measurement,value
"O=S(=O)(O)c1cccc2cccc(Nc3ccccc3)c12 [ANS, 1-anilinonaphthalene-8-sulfonate]",affinity,moderate affinity
